Test results as given in patent publication US20020137781A1, “Preparation and use of enantiomer-pure 2,4-disubstituted oxazolines” (priority 1999, published 2002).

What was measured:
Dermanyssus gallinae = test: Comparative in vitro effect on Dermanyssus gallinae
Method: 15 fed adult female mites of the genus Dermanyssus gallinae fixed on a plastic adhesive film are brought into contact with 50 μl of an aqueous suspension or emulsion of the test substance. The test is carried out with concentrations of 32, 10, 3.2, 1.0, 0.32 to 0.1 ppm. After drying, the film is stuck onto a glass disc. This creates a kind of air bubble around each mite, the lower surface of which is formed by the glass disc and the upper surface by a bulging of the adhesive film. This bubble contains sufficient air for the mite to avoid suffocating. After 5 days, the effect of the test substance is evaluated with the aid of a stereo-microscope by assessing the effect on mortality, egg deposition, egg quality, hatching rate, pupation rate, and development of protonymphs according to the following 4 criteria:
1. if 9 to 10 mites are dead, this indicates a lethal effect (M);
3. if 2 or more mites survive and produce eggs, but no larvae hatch from these eggs and no protonymphs develop, this indicates a development-inhibiting effect (H);
4. if 2 or more mites survive and lay the usual number of normal eggs, from which larvae hatch and develop into protonymphs, this indicates no activity.

Aonidiella aurantii = test: Effect against Aonidiella aurantii; assay type: in vivo; settings: 400 ppm, potato tubers immersed, 10 to 12 weeks
Method: Potato tubers are colonised with crawlers of Aonidiella aurantii. After about 2 weeks, the potatoes are immersed in an aqueous emulsion or suspension spray mixture containing 400 ppm of active ingredient. After the tubers have dried off, they are incubated in a plastic container. Evaluation is effected 10 to 12 weeks later by comparing the survival rate of the crawlers of the first secondary generation of the treated population with that of untreated control batches.

Nilaparvata lugens = test: Effect against Nilaparvata lugens; assay type: in vivo; settings: 400 ppm spray on rice plants, second and third instar larvae, 21 days
Method: Rice plants are sprayed with an aqueous emulsion spray mixture containing 400 ppm of active ingredient. After the spray coating has dried on, the rice plants are colonised with second and third instar larvae of plant and leaf-hoppers. 21 days later they are evaluated. The percentage reduction of the population (% response) is determined by comparing the number of surviving plant and leaf-hoppers on the treated plants with those on the untreated plants.

Blattella germanica = test: Effect against Blattella germanica; assay type: in vivo; settings: application rate of 2 g/m^2, nymphs exposed 2 hours, evaluated after 48 hours
Method: Sufficient acetonic solution (0.1%) of the active ingredient is added to a Petri dish for the quantity thereof to correspond to an application rate of 2 g/m^2. When the solvent has evaporated, 20 nymphs of Blattella germanica (last nymph stage) are placed in the dish and exposed to the action of the test substance for 2 hours. The nymphs are then anaesthetised with CO2, added to a fresh Petri dish and kept in the dark at 25° and 50 to 70% humidity. After 48 hours, the insecticidal effect is evaluated by determining the mortality rate.

Tetranychus urticae [1] = test: Ovicidal effect on Tetranychus urticae; assay type: in vivo; settings: 400 ppm spray on bean plants colonised with eggs, 6 days at 25° C.
Method: Young bean plants are colonised with females of Tetranychus urticae, which are removed again after 24 hours. The plants colonised with eggs are sprayed with an aqueous emulsion spray mixture containing 400 ppm of active ingredient. The plants are incubated for 6 days at 25° C. and then evaluated. The percentage reduction of the population (% response) is determined by comparing the total number of dead eggs, larvae, and adults on the treated plants with those on the untreated plants.

Aphis craccivora = test: Effect against Aphis craccivora; assay type: in vivo; settings: 400 ppm spray on pea seedlings, 20° C., 3 and 6 days
Method: Pea seedlings are infected with Aphis craccivora, subsequently sprayed with a spray mixture containing 400 ppm of active ingredient, and then incubated at 20° C. 3 and 6 days later, they are evaluated. The percentage reduction of the population (% response) is determined by comparing the number of dead aphids on the treated plants with those on the untreated plants.

Tetranychus urticae [2] = test: Effect against Tetranychus urticae; assay type: in vivo; settings: 400 ppm spray on bean plants, mixed population, 6 days at 25° C.
Method: Young bean plants are colonised with a mixed population of Tetranychus urticae and, one day later, are sprayed with an aqueous emulsion spray mixture containing 400 ppm of active ingredient. The plants are subsequently incubated for 6 days at 25° C. and then evaluated. The percentage reduction of the population (% response) is determined by comparing the total number of dead eggs, larvae, and adults on the treated plants with those on the untreated plants.

Heliothis virescens [3] = test: Ovicidal effect on Heliothis virescens; assay type: in vivo; settings: 400 ppm in acetone/water, eggs on filter paper immersed, after 6 days
Method: Eggs of Heliothis virescens deposited on filter paper are immersed briefly in a test solution comprising 400 ppm of the active ingredient to be tested in acetone/water. After the test solution has dried, the eggs are incubated in Petri dishes. After 6 days, the percentage hatching rate of the eggs is compared with that for untreated controls (% reduction in hatching rate).

Anthonomus grandis = test: Effect against Anthonomus grandis; assay type: in vivo; settings: 400 ppm spray on cotton plants, adults, three days
Method: (§1) Young cotton plants are sprayed with an aqueous emulsion spray mixture containing 400 ppm of active ingredient. After the spray coating has dried on, the cotton plants are colonised with 10 adult Anthonomus grandis and placed in a plastic container. Three days later they are evaluated. The percentage reduction of the population and of the feeding damage (% response) is determined by comparing the total number of dead beetles and the feeding damage on the treated plants with those on the untreated plants.

Bemisia tabaci = test: Effect against Bemisia tabaci; assay type: in vivo; settings: 400 ppm spray on dwarf bean plants with nymphs, after a further 14 days
From the text: Dwarf bean plants are placed in gauze cages and colonised with adults of Bemisia tabaci. Following oviposition, all adults are removed. Ten days later, the plants and the nymphs thereon are sprayed with an aqueous emulsion spray mixture containing 400 ppm of the active ingredient. After a further 14 days, the percentage hatching rate of the eggs is compared with that of untreated controls.

Spodoptera littoralis = test: Effect on Spodoptera littoralis; assay type: in vivo; settings: 400 ppm spray on soybean plants, third-instar larvae, three days
Method: as §1, with “soybean” for “cotton”, “deposit” for “coating”, “dried,” for “dried on,”, “the” for “the cotton”, “third-instar larvae of Spodoptera littoralis” for “adult Anthonomus grandis”, “caterpillars” for “beetles”

Heliothis virescens [4] = test: Effect on Heliothis virescens caterpillars; assay type: in vivo; settings: 400 ppm spray on soya plants, first-instar larvae, six days
Method: Young soya plants are sprayed with an aqueous emulsion spray mixture containing 400 ppm of active ingredient. After drying of the spray deposit, the soya plants are colonised with 10 first-instar larvae of Heliothis virescens and placed in a plastic container. Six days later they are evaluated. The percentage reduction of the population and percentage reduction in feeding damage (% response) is determined by comparing the number of dead larvae and the extent of feeding damage on the treated plants with those on the untreated plants.

## Fc1cccc(F)c1C1=NC(c2ccc(-c3ccc(C(F)(F)F)cc3)cc2)CO1 (single isomer, unassigned) [1.1, 2-(2,6-difluoro-phenyl)-4-(4′-trifluoromethylbiphenyl-4-yl)-4,5-dihydro-oxazole]
Dermanyssus gallinae; after 5 days
  concentration that completely inhibits the development of protonymphs: ≤ 0.0064 ppm
Dermanyssus gallinae; at the EC100 of the same table line, listed as Enantiomer A
  Type of activity: 1
Dermanyssus gallinae; fed adult female mites, evaluated after 5 days, listed as Enantiomer A
  EC100 (minimum dosage to reach 100% mortality): 0.0064 ppm
Dermanyssus gallinae; ratio of EC100
  activity relative to enantiomer B: 3000-5000 times
  activity relative to the racemate: more than 30 times
Aonidiella aurantii
  response (survival rate of the crawlers of the first secondary generation vs untreated): more than 80%
Nilaparvata lugens
  percentage reduction of the population (% response): more than 80%
Blattella germanica
  mortality rate (response): more than 80%
Tetranychus urticae [1]
  percentage reduction of the population (% response): more than 80%
Aphis craccivora
  percentage reduction of the population (% response): more than 80%
Tetranychus urticae [2]
  percentage reduction of the population (% response): more than 80%
Heliothis virescens [3]
  % reduction in hatching rate (response): more than 80%
Anthonomus grandis
  percentage reduction of the population and of the feeding damage (% response): more than 80%
Bemisia tabaci
  response (percentage hatching rate of the eggs vs untreated controls): more than 80%
Spodoptera littoralis
  percentage reduction of the population and of the feeding damage (% response): more than 80%
Heliothis virescens [4]
  percentage reduction of the population and percentage reduction in feeding damage (% response): more than 80%
